As a reminder, the pA2 is the negative logarithm of the molar antagonist concentration that doubles the agonist concentration needed for the same response.

For the assay, the target named is T1, Adrenergic receptor alpha-1 (Rattus norvegicus, UniProt P15823+P23944+P43140).
T1 sequence (P15823 whole entry): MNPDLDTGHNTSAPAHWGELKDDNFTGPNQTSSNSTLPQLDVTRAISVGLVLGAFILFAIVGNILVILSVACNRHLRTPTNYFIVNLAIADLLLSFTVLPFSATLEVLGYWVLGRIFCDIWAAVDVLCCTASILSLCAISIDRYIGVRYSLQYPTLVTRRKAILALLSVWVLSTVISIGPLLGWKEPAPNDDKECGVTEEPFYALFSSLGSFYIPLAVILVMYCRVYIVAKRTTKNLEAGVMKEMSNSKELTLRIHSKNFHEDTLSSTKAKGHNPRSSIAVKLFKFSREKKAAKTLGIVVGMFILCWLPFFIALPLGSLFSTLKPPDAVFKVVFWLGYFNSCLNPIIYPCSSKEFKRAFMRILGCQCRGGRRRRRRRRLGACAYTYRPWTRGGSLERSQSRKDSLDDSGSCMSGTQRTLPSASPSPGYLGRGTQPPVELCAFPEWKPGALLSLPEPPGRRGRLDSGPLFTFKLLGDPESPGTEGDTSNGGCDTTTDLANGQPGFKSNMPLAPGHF
T1 sequence (P23944 whole entry): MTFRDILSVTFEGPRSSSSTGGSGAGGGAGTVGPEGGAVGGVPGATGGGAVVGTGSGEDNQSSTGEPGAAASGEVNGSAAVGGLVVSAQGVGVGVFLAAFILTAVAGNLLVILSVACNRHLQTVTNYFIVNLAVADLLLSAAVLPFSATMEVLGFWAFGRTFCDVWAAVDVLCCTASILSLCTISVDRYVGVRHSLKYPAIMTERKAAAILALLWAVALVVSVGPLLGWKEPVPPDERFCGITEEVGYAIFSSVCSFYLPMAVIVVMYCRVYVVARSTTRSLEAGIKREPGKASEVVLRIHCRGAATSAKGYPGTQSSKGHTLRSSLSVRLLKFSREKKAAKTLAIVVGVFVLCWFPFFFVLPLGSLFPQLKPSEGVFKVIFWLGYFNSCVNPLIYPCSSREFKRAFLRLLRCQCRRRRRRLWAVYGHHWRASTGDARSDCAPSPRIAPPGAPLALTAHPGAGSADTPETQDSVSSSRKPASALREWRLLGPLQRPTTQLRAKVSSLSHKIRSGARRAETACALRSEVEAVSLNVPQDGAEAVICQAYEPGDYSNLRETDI
T1 sequence (P43140 whole entry): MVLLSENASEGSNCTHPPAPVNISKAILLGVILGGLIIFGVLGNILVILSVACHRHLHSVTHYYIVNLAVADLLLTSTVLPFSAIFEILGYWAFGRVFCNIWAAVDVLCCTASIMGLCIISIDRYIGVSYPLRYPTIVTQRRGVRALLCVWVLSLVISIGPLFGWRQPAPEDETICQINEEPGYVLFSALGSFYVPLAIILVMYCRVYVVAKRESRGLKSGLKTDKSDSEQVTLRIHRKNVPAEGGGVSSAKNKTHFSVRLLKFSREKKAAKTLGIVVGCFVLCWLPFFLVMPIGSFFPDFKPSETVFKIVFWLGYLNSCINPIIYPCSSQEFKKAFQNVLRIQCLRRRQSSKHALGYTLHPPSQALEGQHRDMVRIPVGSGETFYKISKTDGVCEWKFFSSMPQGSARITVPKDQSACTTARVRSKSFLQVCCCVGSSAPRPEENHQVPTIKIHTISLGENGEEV
Put plainly: Antagonist activity at alpha1-adrenoceptor in rat anococcygeal muscle assessed as inhibition of phenylephrine-induced contraction. It is filed as functional.
For the compound `O=c1cc(-c2ccc(Cl)cc2)oc2cc(O)ccc12`, the pA2 was 6.845. Under `O=c1cc(-c2ccccc2)oc2cc(OCCN3CCN(c4ccccc4)CC3)ccc12` stands 8.526; under `O=c1cc(-c2ccccc2)oc2cc(OCCCN3CCN(c4ccccc4)CC3)ccc12`, 8.177; under `O=c1cc(-c2ccccc2)oc2cc(OCCCCN3CCN(c4ccccc4)CC3)ccc12`, 8.333. As to `Cc1ccc(N2CCN(CCOc3ccc4c(=O)cc(-c5ccccc5)oc4c3)CC2)cc1`, the pA2 turned out to be 8.647. Under `Cc1ccc(N2CCN(CCCOc3ccc4c(=O)cc(-c5ccccc5)oc4c3)CC2)cc1` stands 7.684. Under `Cc1ccc(N2CCN(CCCCOc3ccc4c(=O)cc(-c5ccccc5)oc4c3)CC2)cc1` stands 6.709; under `Cc1ccccc1N1CCN(CCOc2ccc3c(=O)cc(-c4ccccc4)oc3c2)CC1`, 7.383; under `Cc1ccccc1N1CCN(CCCOc2ccc3c(=O)cc(-c4ccccc4)oc3c2)CC1`, 6.93. As for `Cc1ccccc1N1CCN(CCCCOc2ccc3c(=O)cc(-c4ccccc4)oc3c2)CC1`, the pA2 amounted to 7.71. In the case of `O=c1cc(-c2ccc(Cl)cc2)oc2cc(OCCN3CCN(c4ccccc4)CC3)ccc12`, the pA2 was determined as 8.579. Consider `O=c1cc(-c2ccc(Cl)cc2)oc2cc(OCCCN3CCN(c4ccccc4)CC3)ccc12`, for which the pA2 was found to be 8.072.

In the case of `O=c1cc(-c2ccc(Cl)cc2)oc2cc(OCCCCN3CCN(c4ccccc4)CC3)ccc12`, the pA2 is recorded as 7.914.

Take `Cc1ccc(N2CCN(CCOc3ccc4c(=O)cc(-c5ccc(Cl)cc5)oc4c3)CC2)cc1`: the pA2 came to 8.93.

For `Cc1ccc(N2CCN(CCCOc3ccc4c(=O)cc(-c5ccc(Cl)cc5)oc4c3)CC2)cc1`, the pA2 was found to be 8.088.

Turning to `Cc1ccc(N2CCN(CCCCOc3ccc4c(=O)cc(-c5ccc(Cl)cc5)oc4c3)CC2)cc1`, the pA2 is recorded as 8.498. For `Cc1ccccc1N1CCN(CCOc2ccc3c(=O)cc(-c4ccc(Cl)cc4)oc3c2)CC1`, the pA2 is reported as 8.207.

For `Cc1ccccc1N1CCN(CCCOc2ccc3c(=O)cc(-c4ccc(Cl)cc4)oc3c2)CC1`, the pA2 is given as 7.772. In the case of `Cc1ccccc1N1CCN(CCCCOc2ccc3c(=O)cc(-c4ccc(Cl)cc4)oc3c2)CC1`, the pA2 is 7.471. On to `O=c1cc(-c2ccccc2)oc2cc(OCCBr)ccc12`, for which the pA2 is listed as 6.897. With `O=c1cc(-c2ccc(Cl)cc2)oc2cc(OCCBr)ccc12`, the pA2 amounted to 6.925.

Take `O=c1cc(-c2ccccc2)oc2cc(OCCCBr)ccc12`: the pA2 turned out to be 6.409. Regarding `O=c1cc(-c2ccc(Cl)cc2)oc2cc(OCCCBr)ccc12`, the pA2 came to 6.168. `O=c1cc(-c2ccccc2)oc2cc(OCCCCBr)ccc12`: the pA2 was 6.538. `O=c1cc(-c2ccc(Cl)cc2)oc2cc(OCCCCBr)ccc12`: the pA2 was 6.368. `O=c1cc(-c2ccccc2)oc2cc(O)ccc12` [7-HYDROXYFLAVONE]: the pA2 amounted to 6.609.

Values taken from ChEMBL document CHEMBL1667817, “Design, synthesis and biological evaluation of new arylpiperazine derivatives bearing a flavone moiety as α1-adrenoceptor antagonists” (Bioorg Med Chem Lett, 2011).
